Results reported in USRE37781E1, “Substituted cyclic carbonyls and derivatives thereof useful as retroviral protease inhibitors” (DuPont Pharmaceuticals Company, priority 1991, dated 2002).
Values after ≈ are worked out from the molar mass of the structure shown. Where two headings read alike, the source gives them in different places.

What was measured:
[1] = system: HIV-1 (RF) in MT-2 cells; assay: microbe, parasite or virus in culture; format: cell-based
Method in brief: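 Read-out: gag and pol viral RNA captured by 5′-biotinylated oligonucleotides on streptavidin-coated wells, detected with alkaline phosphatase-linked reporter oligonucleotides, calibrated against BH10 in vitro transcripts. Virus stocks (RF, MN, IIIB) come from H9 cultures; MT-2 host cells kept in RPMI 1640, 5% FCS.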

[2] = target: single-chain tethered dimer of HIV protease (Human immunodeficiency virus 1, UniProt P04585); assay: biochemical; format: biochemical; design: fused on or other part: A second copy of the same protease unit is joined to the first by a short peptide tether, giving one polypeptide
[3] = Table 2d, class symbols, read-out: HPLC K1
[4] = Human immunodeficiency virus 1, MT2, 48 h, Table 2d, class symbols, read-out: IC90
[5] = read-out: HPLC K1, Table 2d, class symbols
[6] = Human immunodeficiency virus 1, MT2, 48 h, Table 2d, HIV RNA assay, read-out: IC90
[7] = read-out: HPLC K1, Table 2d, HIV protease inhibition, HPLC method
[8] = Table 2d, HIV protease inhibition, HPLC method, read-out: HPLC K1
[9] = HIV RNA assay, HIV-1 infected MT-2 cells, Table 2d
[10] = HIV protease inhibition, HPLC method, Table 2d, read-out: HPLC K1
[11] = Table 2u (second printing), HPLC method, read-out: K1 (HPLC)
[12] = Table 2u, HPLC method, read-out: K1 (HPLC)

## O=C1N(Cc2cccc(C=NCCO)c2)C(Cc2ccccc2)C(O)C(O)C(Cc2ccccc2)N1Cc1cccc(C2NCCO2)c1 (centres unmarked) [Example 9K]
[1]; Table 2d, class symbols
  IC90: +++ (+++=<10 μg/mL)
[2]; [3]
  Ki: 0.01 to 1 µM

## CC(=O)c1cccc(CN2C(Cc3ccccc3)C(O)C(O)C(Cc3ccccc3)N(Cc3cccc(C(C)=O)c3)S2(=O)=O)c1 (centres unmarked) [23T]
[1]; Table 2m
  IC90: +++ (+++=<10 μg/mL)
[2]; Table 2m, read-out: HPLC Ki
  Ki: < 0.01 µM

## CC(C)(C)Sc1ncccc1CN1C(=O)N(Cc2cccnc2SC(C)(C)C)C(Cc2ccccc2)C(O)C(O)C1Cc1ccccc1 (centres unmarked) [Example 14B]
[1]; [4]
  IC90: < 10 µg/mL
[2]; [5]
  Ki: 0.01 to 1 µM

## CC(O)c1cccc(CN2C(=O)N(Cc3cccc(C(C)O)c3)C(Cc3ccccc3)C(O)C(O)C2Cc2ccccc2)c1 (centres unmarked) [15XD]
[1]; [6]
  IC90: < 10 µg/mL
[2]; [7]
  Ki: < 0.01 µM

## O=C1N(Cc2cccc(CO)c2)C(Cc2ccccc2)C(O)C(O)C(Cc2ccccc2)N1Cc1ccccc1O (centres unmarked) [15EB]
[1]; Table 2d, HIV RNA assay
  IC90: +++ (+++=<10 μg/mL)
[2]; [8]
  Ki: 0.01 to 1 µM

## COC(=O)CCCCCN1C(=O)N(CCCCCC(=O)OC)C(Cc2ccccc2)C(O)C(O)C1Cc1ccccc1 (centres unmarked) [Example 12H]
[1]; [4]
  IC90: 10 to 100 µg/mL (≈ 17.2 to 172 µM)
[2]; [5]
  Ki: 0.01 to 1 µM

## COC(=O)c1cc(CN2C(=O)N(Cc3ccc(F)c(C(=O)OC)c3)C(Cc3ccccc3)C(O)C(O)C2Cc2ccccc2)ccc1F (centres unmarked) [15EE]
[1]; Table 2d, HIV RNA assay
  IC90: + (+=>100 μg/mL)
[2]; [8]
  Ki: < 0.01 µM

## CNC(=S)NCCCCCN1C(=O)N(CCCCCNC(=S)NC)C(Cc2ccccc2)C(O)C(O)C1Cc1ccccc1 (centres unmarked) [15EV]
[1]; Table 2d, HIV RNA assay
  IC90: ++/+ (The ++/+ is used in the cases where an IC90 was determined to be >50 μg/mL)
[2]; [8]
  Ki: 0.01 to 1 µM

## CC1(C)CCC(C)(C)c2cc(CN3C(=O)N(Cc4ccc5c(c4)C(C)(C)CCC5(C)C)C(Cc4ccccc4)C(O)C(O)C3Cc3ccccc3)ccc21 (centres unmarked) [15EL]
[1]; Table 2d, HIV RNA assay
  IC90: ++/+ (The ++/+ is used in the cases where an IC90 was determined to be >50 μg/mL)
[2]; [8]
  Ki: > 1 µM

## O=C(NCCCCCN1C(=O)N(CCCCCNC(=O)c2cccc(F)c2)C(Cc2ccccc2)C(O)C(O)C1Cc1ccccc1)c1cccc(F)c1 (centres unmarked) [15EY]
[1]; [9]
  IC90: +++ (+++=<10 μg/mL)
[2]; [10]
  Ki: 0.01 to 1 µM

## CCCCC(O)CN1C(=O)NC(Cc2ccccc2)C(O)C(O)C1Cc1ccccc1 (centres unmarked) [Example 15VM]
[1]; [4]
  IC90: > 50 µg/mL
[2]; [5]
  Ki: > 1 µM

## O=C(NCCCCCN1C(=O)N(CCCCCNC(=O)c2cc(F)cc(F)c2)C(Cc2ccccc2)C(O)C(O)C1Cc1ccccc1)c1cc(F)cc(F)c1 (centres unmarked) [15FG]
[1]; [9]
  IC90: ++/+ (The ++/+ is used in the cases where an IC90 was determined to be >50 μg/mL)
[2]; [10]
  Ki: 0.01 to 1 µM

## O=C(O)CCCCCN1C(=O)N(CCCCCC(=O)O)C(Cc2ccccc2)C(O)C(O)C1Cc1ccccc1 (centres unmarked) [Example 12G]
[1]; [4]
  IC90: < 10 µg/mL
[2]; [5]
  Ki: < 0.01 µM

## NC(=O)COc1cccc(CN2C(=O)N(Cc3cccc(OCC(N)=O)c3)C(Cc3ccccc3)C(O)C(O)C2Cc2ccccc2)c1 (centres unmarked) [10H]
[1]; Table 2d, class symbols
  IC90: +++ (+++=<10 μg/mL)
[2]; [3]
  Ki: < 0.01 µM

## O=S1(=O)N(Cc2ccccc2)C(Cc2ccccc2)C2OC2C(Cc2ccccc2)N1Cc1ccccc1 (centres unmarked) [31F]
[1]; Table 2u
  IC90: ++/+ (The ++/+ is used in the cases where an IC90 was determined to be >50 μg/mL)
[1]; Table 2u (second printing)
  IC90: ++/+ (The ++/+ is used in the cases where an IC90 was determined to be >50 μg/mL)
[2]; [11]
  Ki: > 1 µM
[2]; [12]
  Ki: > 1 µM

## CN(C)Cc1nc(-c2cccc(CN3C(=O)N(Cc4cccc(-c5noc(CN(C)C)n5)c4)C(Cc4ccccc4)C(O)C(O)C3Cc3ccccc3)c2)no1.Cl.Cl (centres unmarked) [Example 15AO]
[1]; Table 2d, HIV RNA assay
  IC90: +++ (+++=<10 μg/mL)
[2]; [8]
  Ki: < 0.01 µM

## CNC(=O)OCCCCCCN1C(=O)N(CCCCCCOC(=O)NC)C(Cc2ccccc2)C(O)C(O)C1Cc1ccccc1 (centres unmarked) [Example 12W]
[1]; [4]
  IC90: 10 to 100 µg/mL (≈ 15.6 to 156 µM)
[2]; [5]
  Ki: 0.01 to 1 µM

## O=C1N(Cc2ccc3[nH]nc(Cl)c3c2)C(Cc2ccccc2)C(O)C(O)C(Cc2ccccc2)N1Cc1ccc2[nH]nc(Cl)c2c1 (centres unmarked) [15DI]
[1]; Table 2d, HIV RNA assay
  IC90: +++ (+++=<10 μg/mL)
[2]; [8]
  Ki: < 0.01 µM

## O=C1NC(Cc2ccccc2)C(O)C(O)C(Cc2ccccc2)N1CC1CC1CO (centres unmarked) [Example 12N]
[1]; [4]
  IC90: > 100 µg/mL
[2]; [5]
  Ki: 0.01 to 1 µM

## Oc1ccc(CN2C(=S)N(Cc3ccc(O)cc3)C(Cc3ccccc3)C(O)C(O)C2Cc2ccccc2)cc1 (centres unmarked) [Example 27F]
[1]; Table 2q
  IC90: +++ (+++=<10 μg/mL)
[2]; Table 2q, read-out: HPLC Ki
  Ki: < 0.01 µM

## NC(=NO)c1cccc(CN2C(=O)N(Cc3cccc(C(N)=NO)c3)C(Cc3ccccc3)C(O)C(O)C2Cc2ccccc2)c1 (centres unmarked) [20V]
[1]; Table 2i
  IC90: +++ (+++=<10 μg/mL)
[2]; Table 2i, read-out: HPLC Ki
  Ki: < 0.01 µM

## CCNc1n[nH]c2ccc(CN3C(=O)N(Cc4ccc5[nH]nc(NCC)c5c4)C(Cc4ccccc4)C(O)C(O)C3Cc3ccccc3)cc12 (centres unmarked) [15DJ]
[1]; Table 2d, HIV RNA assay
  IC90: +++ (+++=<10 μg/mL)
[2]; [8]
  Ki: < 0.01 µM

## O=C1N(CCCCCCCO)C(Cc2ccccc2)C(O)C(O)C(Cc2ccccc2)N1CCCCCCCO (centres unmarked) [Example 12P]
[1]; [4]
  IC90: < 10 µg/mL
[2]; [5]
  Ki: 0.01 to 1 µM

## COc1cccc(CC2C(O)C(O)C(Cc3cccc(OC)c3)N(CC3CC3)C(=O)N2CC2CC2)c1 (centres unmarked) [20AS]
[1]; Table 2i
  IC90: +++ (+++=<10 μg/mL)
[2]; Table 2i, read-out: HPLC Ki
  Ki: < 0.01 µM

## O=C1N(CC2CC2)C(Cc2ccccc2)C(O)C(O)C(Cc2ccccc2)N1CC1CC1 (centres unmarked) [Example 13J]
[1]; Table 2d, class symbols
  IC90: +++ (+++=<10 μg/mL)
[2]; [3]
  Ki: < 0.01 µM

## CCOC(=O)c1cccc(CN2C(=O)N(CCCCCO)C(Cc3ccccc3)C(O)C(O)C2Cc2ccccc2)c1 (centres unmarked) [Example 15VY]
[1]; [4]
  IC90: < 10 µg/mL
[2]; [5]
  Ki: < 0.01 µM

## COC(=O)c1ccc(CN2C(Cc3ccc(F)cc3)C(O)C(O)C(Cc3ccc(F)cc3)N(Cc3ccc(C(=O)OC)cc3)S2(=O)=O)cc1 (centres unmarked) [31B]
[1]; Table 2u
  IC90: +++ (+++=<10 μg/mL)
[1]; Table 2u (second printing)
  IC90: +++ (+++=<10 μg/mL)
[2]; [11]
  Ki: 0.01 to 1 µM
[2]; [12]
  Ki: 0.01 to 1 µM

## O=C1N(CCCCCCO)C(Cc2ccccc2)C(O)C(O)C(Cc2ccccc2)N1CCCCCCCl (centres unmarked) [Example 15VE]
[1]; [4]
  IC90: < 10 µg/mL
[2]; [5]
  Ki: 0.01 to 1 µM

## CCC(=O)CN1C(=O)N(CC(=O)CC)C(Cc2ccccc2)C(O)C(O)C1Cc1ccccc1 (centres unmarked) [Example 15VO]
[1]; [4]
  IC90: > 50 µg/mL
[2]; [5]
  Ki: 0.01 to 1 µM

## O=C1N(Cc2cccc(I)c2)C(Cc2ccccc2)C(O)C(O)C(Cc2ccccc2)N1Cc1cccc(I)c1 (centres unmarked) [Example 12J]
[1]; [4]
  IC90: < 10 µg/mL
[2]; [5]
  Ki: < 0.01 µM

## C=CCCCCN1C(=O)N(CCCCC=C)C(Cc2ccccc2)C(O)C(O)C1Cc1ccccc1 (centres unmarked) [Example 13D]
[1]; [4]
  IC90: < 10 µg/mL
[2]; [5]
  Ki: < 0.01 µM

## O=C1N(Cc2nccs2)C(Cc2ccccc2)C(O)C(O)C(Cc2ccccc2)N1Cc1nccs1 (centres unmarked) [Example 13V]
[1]; Table 2d, class symbols
  IC90: ++ (++=10 to 100 μg/mL)
[2]; [3]
  Ki: 0.01 to 1 µM

## O=P1(Oc2ccccc2)N(Cc2ccc(CO)cc2)[C@H](Cc2ccccc2)[C@H](O)[C@@H](O)[C@@H](Cc2ccccc2)N1Cc1ccc(CO)cc1 (some centres unmarked) [28E]
[1]; Table 2r
  IC90: +++ (+++=<10 μg/mL)
[2]; Table 2r, read-out: Ki HPLC
  Ki: 0.01 to 1 µM

## CCCNC(=O)c1cccc(CN2C(=O)N(Cc3cccc(C(=O)NCCC)c3)C(Cc3ccccc3)C(O)C(O)C2Cc2ccccc2)c1 (centres unmarked) [15WM]
[1]; [4]
  IC90: < 10 µg/mL
[2]; [5]
  Ki: < 0.01 µM

## O=C(O)c1ccc(CN2C(=O)N(Cc3ccc(CO)cc3)C(Cc3ccccc3)C(O)C(O)C2Cc2ccccc2)cc1 (centres unmarked) [15XA]
[1]; [6]
  IC90: 10 to 100 µg/mL (≈ 17.2 to 172 µM)
[2]; [7]
  Ki: < 0.01 µM

## NC(=NO)c1cccc(CN2C(=O)N(Cc3cccc(C(N)=NO)c3)C(Cc3ccc(F)cc3)C(O)C(O)C2Cc2ccc(F)cc2)c1 (centres unmarked) [20X]
[1]; Human immunodeficiency virus 1, MT2, Table 2i, read-out: IC90
  IC90: < 10 µg/mL
[2]; read-out: HPLC Ki, Table 2i
  Ki: < 0.01 µM

## CC(=O)c1cccc(CN2C(=O)N(Cc3cccc(C(C)=O)c3)C(Cc3ccc(F)cc3)C(O)C(O)C2Cc2ccc(F)cc2)c1 (centres unmarked) [20N]
[1]; Table 2i
  IC90: +++ (+++=<10 μg/mL)
[2]; Table 2i, read-out: HPLC Ki
  Ki: < 0.01 µM

## Cl.O=C(OCc1ccc(CN2C(=O)N(Cc3ccc(COC(=O)c4ccc(CNCCO)cc4)cc3)[C@H](Cc3ccccc3)[C@H](O)[C@@H](O)[C@H]2Cc2ccccc2)cc1)c1ccc(CNCCO)cc1 [29W]
[1]; Table 2s
  IC90: +++ (+++=<10 μg/mL)
[2]; Table 2s, read-out: Ki (HPLC)
  Ki: 0.01 to 1 µM

## NC(=O)c1cc(CN2C(=O)N(Cc3ccc(F)c(C(N)=NO)c3)C(Cc3ccccc3)C(O)C(O)C2Cc2ccccc2)ccc1F (centres unmarked) [15EH]
[1]; Table 2d, HIV RNA assay
  IC90: +++ (+++=<10 μg/mL)
[2]; [8]
  Ki: < 0.01 µM

## O=S1(=O)N(Cc2ccccc2)C(Cc2ccccc2)C(O)C(O)C(Cc2ccccc2)N1Cc1ccccc1 (centres unmarked) [23I]
[1]; Table 2m
  IC90: +++ (+++=<10 μg/mL)
[2]; Table 2m, read-out: HPLC Ki
  Ki: 0.01 to 1 µM

## CNC(=O)OCCCCCN1C(=O)N(CCCCCOC(=O)NC)C(Cc2ccccc2)C(O)C(O)C1Cc1ccccc1 (centres unmarked) [15EK]
[1]; Table 2d, HIV RNA assay
  IC90: ++ (++=10 to 100 μg/mL)
[2]; [8]
  Ki: 0.01 to 1 µM
